# According to paper PMC9758846, “Dinuclear and mononuclear metal(II) polypyridyl complexes against drug-sensitive and drug-resistant Plasmodium falciparum and their mode of action” (Malaria Journal, 2022):
# Values joined by “and” are separate entries in the source; they are usually repeats but may differ in a detail not shown here. Equal values may be shown once.
# Experiments:
# [1] = test system: Plasmodium falciparum 3D7 (Pf3D7); test: In vitro anti-malarial activity using SYBR Green I nucleic acid dye; assay type: cell-based; settings: 72 h incubation; read-out: IC50 of Pf3D7
# Experimental: (§1) The drug-sensitive strain of P. falciparum 3D7 (Pf3D7) was obtained from the Department of Science, Monash University, Malaysia and cultured as previously described. The artemisinin-resistant strain of P. falciparum IPC5202 (Pf5202) was obtained from BEI Resources and cultured as mentioned in the product sheet. Both strains were maintained in sealed flask at 37 °C in a humidified atmosphere of 5% O2, 5% CO2 and 90% N2. All buffer stock solutions for biological assays were autoclaved at 121 °C for 15 min.
# (§2) Previously reported anti-malarial assay was used with slight modification using 1% parasitaemia (ring-stage) and 5% haematocrit treated with test compounds at increasing concentration and incubated for 72 h at 37 °C [21–23]. After the incubation, the assay was terminated by freeze/thaw cycle (− 80 °C overnight before thawing for 2 h) before the addition of lysis buffer containing SYBR Green I dye into each well and mixed thoroughly using the belly dancer for 30 min in the dark. Chloroquine diphosphate salt and artemisinin were used as standard drugs. The fluorescence signal was quantified at 485 nm excitation wavelength and 528 nm emission wavelength. IC50 values of each test compound was determined from a dose response curve by non-linear regression analysis.
# [2] = test system: Plasmodium falciparum IPC5202 (Pf5202); test: as above; assay type: cell-based; settings: 72 h incubation; read-out: IC50 of Pf5202
# Experimental: as §1, §2
# [3] = test system: B+ blood red blood cells (RBC); test: In vitro haemolytic assay; assay type: cell-based, human; settings: 72 h, B+ blood
# Experimental: Fresh B+ blood was washed with RPMI1640 medium containing of 30 µg/mL gentamicin (Gibco) and centrifuged at 1000 xg for 10 min three times. The percentage of haemolysis was determined spectroscopically using 5% haematocrit containing test compound at increasing concentration and incubated for 72 h at 37 °C [19, 20]. Untreated blood acted as negative control while blood treated with sterile distilled water acted as positive control (for 100% haemolysis).
# [4] = PNDA assay of •OH radicals from reaction with H2O2; settings: 30 µM compound with excess H2O2
# Experimental: A previously reported spectrometric assay using PNDA was used to quantify the amount of reactive oxygen species (ROS), viz. •OH radicals, produced by the reaction of metal(II) complexes with hydrogen peroxide in borate buffer at pH 7.5 [24–26]. The percentage of PNDA bleaching and the concentration of •OH produced were determined.
# Pf3D7 = test: Intracellular ROS level using DCFH-DA; assay type: cell-based, Plasmodium falciparum
# Experimental: (§3) After incubation, packed cells were washed with phosphate buffer saline (PBS) solution. […] The data was expressed as fold change between amount of ROS produced by treated P. falciparum against untreated P. falciparum. Normalization was done with the percentage of parasite viability obtained at each condition. Hydrogen peroxide was used as positive control.
# Pf5202 = test: Intracellular ROS level using DCFH-DA; assay type: cell-based, Plasmodium falciparum
# Experimental: as §3
# [5] = target: Pf3D7 20S proteasome caspase-like (C-L) site (Plasmodium falciparum, UniProt Q8I0U7); test: 20S proteasome inhibition assay using parasite lysate; assay type: biochemical; settings: Suc-LLE-AMC, 30 min
# Sequence of Pf3D7 20S proteasome caspase-like (C-L) site (Q8I6T3 entry or part of it): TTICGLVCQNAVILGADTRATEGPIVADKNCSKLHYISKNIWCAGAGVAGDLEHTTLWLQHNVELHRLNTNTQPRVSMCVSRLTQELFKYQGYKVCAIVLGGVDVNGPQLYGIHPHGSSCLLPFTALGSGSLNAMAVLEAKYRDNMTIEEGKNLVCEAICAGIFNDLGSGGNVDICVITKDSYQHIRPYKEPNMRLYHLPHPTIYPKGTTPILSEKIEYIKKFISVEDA
# Sequence of Pf3D7 20S proteasome caspase-like (C-L) site (Q8I0U7 entry or part of it): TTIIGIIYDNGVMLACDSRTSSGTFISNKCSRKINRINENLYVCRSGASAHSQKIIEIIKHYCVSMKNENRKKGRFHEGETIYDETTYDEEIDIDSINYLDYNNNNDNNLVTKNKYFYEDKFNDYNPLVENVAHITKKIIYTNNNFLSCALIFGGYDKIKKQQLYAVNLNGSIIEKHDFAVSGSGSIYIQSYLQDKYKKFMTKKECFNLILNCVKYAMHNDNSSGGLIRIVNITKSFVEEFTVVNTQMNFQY
# Experimental: (§4) To harvest P. falciparum parasites, intraerythrocytic Pf3D7 and Pf5202 were collected in trophozoite and early schizont stages. Red blood cells were lysed in 0.15% (w/v) saponin lysis buffer for 10 min at 37 °C. After lysis, the parasite pellet was washed once with PBS buffer by centrifuging at 1600 rpm for 5 min. Saponin lysis buffer was added once again to remove all the red blood cells for 10 min at 37 °C, followed by washing with PBS twice and immediately used or kept at − 80 °C. To prepare parasite lysates for proteasome purification, parasite pellet was resuspended with 100 µl of pre-cooled Pierce™ RIPA buffer. A mild protein extraction method was used to prepare parasite extracts. The resuspended parasites were passed 20 times through a needle with a diameter of 0.4 mm in a syringe on ice to lyse the parasite. After 15 min centrifugation at 13,000 xg at 4 °C, the supernatant was removed. Protein concentration was determined by the Bradford assay. The activities of 3 proteolytic sites were determined by fluorescence assay using fluorogenic peptide substrates (Suc-LLVY-AMC for chymotrypsin-like, Boc-LRR-AMC for trypsin-like and Suc-LLE-AMC for caspase-like) Proteasome activities were determined by monitoring the substrate hydrolysis for 30 min at 37 °C with 340 nm excitation and 465 nm emission wavelength. Activity of each proteolytic site were calculated, and the IC50 values were determined from the non-linear regression analysis. VR23 proteasome inhibitor was used as positive control.
# [6] = target: Pf3D7 20S proteasome chymotrypsin-like (CT-L) site (Plasmodium falciparum, UniProt Q8IJT1); test: as above; assay type: biochemical; settings: Suc-LLVY-AMC, 30 min
# Sequence of Pf3D7 20S proteasome chymotrypsin-like (CT-L) site (Q8IJT1 entry or part of it): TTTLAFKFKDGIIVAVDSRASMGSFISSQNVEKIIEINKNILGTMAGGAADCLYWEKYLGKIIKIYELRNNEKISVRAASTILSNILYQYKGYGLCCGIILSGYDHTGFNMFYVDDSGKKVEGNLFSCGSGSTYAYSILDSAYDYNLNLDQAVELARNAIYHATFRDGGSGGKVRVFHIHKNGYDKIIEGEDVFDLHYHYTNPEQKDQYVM
# Experimental: as §4
# [7] = target: Pf3D7 20S proteasome trypsin-like (T-L) site (Plasmodium falciparum, UniProt Q8I6T3); test: as above; assay type: biochemical; settings: Boc-LRR-AMC, 30 min
# Sequence of Pf3D7 20S proteasome trypsin-like (T-L) site (Q8I6T3 entry or part of it): as the sequence (Q8I6T3 entry or part of it) above
# Experimental: as §4
# [8] = target: Pf5202 20S proteasome caspase-like (C-L) site (Plasmodium falciparum, UniProt Q8I0U7); test: as above; assay type: biochemical; settings: Suc-LLE-AMC, 30 min
# Sequence of Pf5202 20S proteasome caspase-like (C-L) site (Q8I0U7 entry or part of it): as the sequence (Q8I0U7 entry or part of it) above
# Sequence of Pf5202 20S proteasome caspase-like (C-L) site (Q8I6T3 entry or part of it, further chain): as the sequence (Q8I6T3 entry or part of it) above
# Experimental: as §4
# [9] = target: Pf5202 20S proteasome chymotrypsin-like (CT-L) site (Plasmodium falciparum, UniProt Q8IJT1); test: as above; assay type: biochemical; settings: Suc-LLVY-AMC, 30 min
# Sequence of Pf5202 20S proteasome chymotrypsin-like (CT-L) site (Q8IJT1 entry or part of it): as the sequence (Q8IJT1 entry or part of it) above
# Experimental: as §4
# [10] = target: Pf5202 20S proteasome trypsin-like (T-L) site (Plasmodium falciparum, UniProt Q8I6T3); test: as above; assay type: biochemical; settings: for IC50: parasite lysate, Boc-LRR-AMC, 30 min; for Factor by which T-L site of Pf5202 is inhibited better than that of Pf3D7: ratio of T-L IC50 values
# Sequence of Pf5202 20S proteasome trypsin-like (T-L) site (Q8I6T3 entry or part of it): as the sequence (Q8I6T3 entry or part of it) above
# Experimental: as §4
Compound,IC50 [1] [µM],IC50 [2],"Percentage of haemolysis (haemolytic index, HI) ([3]; 1 µM) [%]","Percentage of haemolysis (haemolytic index, HI) ([3]; 5 µM) [%]","Percentage of haemolysis (haemolytic index, HI) ([3]; 25 µM) [%]",Concentration of •OH radical ([4]; 2 h) [µM],Concentration of •OH radical ([4]; 4 h) [µM],Concentration of •OH radical ([4]; 24 h) [µM],Concentration of •OH radical ([4]; 48 h) [µM],Concentration of •OH radical ([4]; 72 h) [µM],"fold change in ROS (Pf3D7; 24 h, 0.2 µM) [fold]","fold change in ROS (Pf3D7; 24 h, 1.0 µM) [fold]","fold change in ROS (Pf3D7; 24 h, 5.0 µM) [fold]","fold change in ROS (Pf3D7; 24 h, 25.0 µM) [fold]","fold change in ROS (Pf3D7; 48 h, 0.2 µM) [fold]","fold change in ROS (Pf3D7; 48 h, 1.0 µM) [fold]","fold change in ROS (Pf3D7; 48 h, 5.0 µM) [fold]","fold change in ROS (Pf3D7; 48 h, 25.0 µM) [fold]","fold change in ROS (Pf3D7; 72 h, 0.2 µM) [fold]","fold change in ROS (Pf5202; 24 h, 0.2 µM) [fold]",further results
"O.O=[N+]([O-])[O-].O=[N+]([O-])[O-].[Cu+2].c1cnc2c(c1)ccc1cccnc12.c1cnc2c(c1)ccc1cccnc12 [Complex 1, [Cu(phen)2](NO3)2·H2O]",3.51 ± 0.47,17.9 ± 2.73 µM,4,80,43,32.20 ± 2.93,34.36 ± 2.62,35.43 ± 1.22,32.19 ± 0.52,28.96 ± 0.38,1.44 ± 0.10,1.54 ± 0.26,2.28 ± 0.25,7.59 ± 0.46,2.45 ± 0.41,3.20 ± 0.19,4.54 ± 0.52,6.83 ± 0.83,0.00 ± 0.10,1.04 ± 0.03,"fold change in ROS (Pf5202; 24 h, 1.0 µM): 0.86 ± 0.04 fold; fold change in ROS (Pf5202; 24 h, 5.0 µM): 0.59 ± 0.02 fold; fold change in ROS (Pf5202; 24 h, 25.0 µM): 0.04 ± 0.03 fold; fold change in ROS (Pf5202; 48 h, 0.2 µM): 0.32 ± 0.02 fold; fold change in ROS (Pf5202; 48 h, 1.0 µM): 0.33 ± 0.05 fold; fold change in ROS (Pf5202; 48 h, 5.0 µM): 0.72 ± 0.12 fold; fold change in ROS (Pf5202; 48 h, 25.0 µM): 0.52 ± 0.26 fold; fold change in ROS (Pf5202; 72 h, 0.2 µM): 1.09 ± 0.07 fold; fold change in ROS (Pf5202; 72 h, 1.0 µM): 1.33 ± 0.41 fold; fold change in ROS (Pf5202; 72 h, 5.0 µM): 1.69 ± 0.22 fold; IC50 [5]: > 25 µM; IC50 [6]: > 25 µM; IC50 [7]: 2.39 ± 0.13 µM; IC50 [8]: > 25 µM; IC50 [9]: > 25 µM; IC50 [10]: 1.62 ± 0.3 µM; Factor by which T-L site of Pf5202 is inhibited better than that of Pf3D7 [10]: about 1.5 ×"
"[Cu(phen)(NO3)(H2O)-4,4′-bipy-Cu(phen)(NO3)(H2O)](NO3)2 [Complex 3]",0.9 ± 0.12,2.2 µM and 2.21 µM,35,96,36,21.13 ± 0.41,22.16 ± 0.36,23.51 ± 1.09,21.29 ± 1.67,18.89 ± 1.45,1.76 ± 0.47,1.13 ± 0.56,2.30 ± 0.86,5.36 ± 0.30,1.20 ± 0.64,1.28 ± 0.31,3.80 ± 1.18,5.46 ± 0.25,1.49 ± 0.10,0.04 ± 0.33,"fold change in ROS (Pf3D7; 72 h, 1.0 µM): 1.77 ± 0.24 fold; fold change in ROS (Pf3D7; 72 h, 5.0 µM): 1.68 ± 0.41 fold; fold change in ROS (Pf3D7; 72 h, 25.0 µM): 2.74 ± 0.24 fold; fold change in ROS (Pf5202; 48 h, 0.2 µM): 0.52 ± 0.60 fold; fold change in ROS (Pf5202; 48 h, 1.0 µM): 0.66 ± 0.50 fold; fold change in ROS (Pf5202; 48 h, 5.0 µM): 2.53 ± 0.85 fold; fold change in ROS (Pf5202; 48 h, 25.0 µM): 3.39 ± 0.66 fold; fold change in ROS (Pf5202; 72 h, 5.0 µM): 8.43 ± 0.60 fold; IC50 [5]: > 25 µM; IC50 [6]: > 25 µM; IC50 [7]: 2.64 ± 0.35 µM; IC50 [8]: > 25 µM; IC50 [9]: > 25 µM; IC50 [10]: 1.72 ± 0.13 µM; Factor by which T-L site of Pf5202 is inhibited better than that of Pf3D7 [10]: about 1.5 ×"
